Where a SMILES comes first, the peptide text is derived from it. [ ]: non-standard residue; d: D form. dPhe(4-Cl) = N[C@H](Cc1ccc(Cl)cc1)C(=O)O; d2Nal = N[C@H](Cc1ccc2ccccc2c1)C(=O)O; dCit = NC(=O)NCCC[C@@H](N)C(=O)O; d3Pal = N[C@H](Cc1cccnc1)C(=O)O; pGlu = O=C1CC[C@@H](C(=O)O)N1
Key:
bfGnRHR = assay: IP production in cells expressing bfGnRHR (bullfrog receptors taken together); type: cell-based
Protocol: GH3 cell lines were obtained from the Cell Line Bank at the Cancer Research Center, Seoul National University College of Medicine, located in Seoul, Republic of Korea. The GH3 cell lines were infected with retroviruses comprising genes encoding bfGnRHR-1, bfGnRHR-2, and bfGnRHR-3 which are bullfrog GnRH receptors, and rat GnRHR, and cell lines expressing each of these receptors were obtained. The GH3 cells expressing bfGnRHR-1, bfGnRHR-2, bfGnRHR-3, and rat GnRHR were cultured on 12-well plates. After 24 hours, the cells were cultured again for 24 hours in a media containing no inositol, to which H^3-myoinositol was added. The resultant cells were washed with buffer A (140 mM NaCl, 20 mM HEPES, 4 mM KCl, 8 mM D-Glucose, 1 mM MgCl2, 1 mM CaCl2, 1 mg/ml BSA) and then cultured in buffer A containing 10 mM LiCl at 37°C. for 30 minutes. Thereafter, they were treated with GnRH having a suitable concentration, cultured at 37° C. for another 30 minutes, and then the media was eliminated. The cells were treated with 10 mM of ice-cold formic acid to terminate the reaction, and the cell extracts were mixed with Dowex anionic exchange resins. These resins were washed with distilled water, IP was extracted with 1 M ammonium formate/0.1 M formic acid, and cpm (count per minute) was determined. […]

TSU-Pri cells = assay: Binding of radiolabeled GnRH to TSU-Pri prostate cancer cells; design: species or system human; conditions: room temperature, 6 hours
Protocol: TSU-Pri, which is one of the prostate cancer cell lines, was cultured along with the radiolabeled I^125GnRH-1 and I^125GnRH-2. […] The radiolabeled GnRH and the cells were cultured at room temperature for 6 hours, and then washed with PBS (phosphate-buffered saline) several times to eliminate the unbound GnRH. Thereafter, the cells were isolated and radioactivity from the cells was measured using a y-counter.

rat GnRHR [1] = target: T1, rat GnRHR (Rattus norvegicus, UniProt P30969); assay: Inositol phosphate (IP) production in GH3 cells expressing rat GnRHR; type: cell-based; conditions: for EC50: GH3 cells, 30 min, given as log EC50 (negative values); for sensitivity compared with GnRH-1: rat GnRHR
T1 construct: expressed in transfected cells; host or cells: GH3 cells, retroviral infection
T1 sequence (P30969 1-327): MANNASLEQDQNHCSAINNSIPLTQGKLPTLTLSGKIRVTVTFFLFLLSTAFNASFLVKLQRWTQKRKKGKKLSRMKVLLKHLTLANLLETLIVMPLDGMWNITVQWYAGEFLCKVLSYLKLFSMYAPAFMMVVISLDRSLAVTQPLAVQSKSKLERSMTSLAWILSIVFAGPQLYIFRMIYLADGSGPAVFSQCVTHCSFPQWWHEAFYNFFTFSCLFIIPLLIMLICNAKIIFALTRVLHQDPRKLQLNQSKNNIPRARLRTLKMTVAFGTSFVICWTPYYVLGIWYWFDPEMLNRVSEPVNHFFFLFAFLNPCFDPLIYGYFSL
From the text: The GnRH receptor, a membrane protein connected with the G protein, activates the G protein when activated by a ligand, and the activated G protein activates phospholipase C and thereby the synthesis of inositol phosphate (IP), which is the second transmitter in cells, is increased. Based on this principle, the activity of a receptor can be investigated by measuring the amount of IP within cells. GH3 cell lines were obtained from the Cell Line Bank at the Cancer Research Center, Seoul National University College of Medicine, located in Seoul, Republic of Korea. The GH3 cell lines were infected with retroviruses comprising genes encoding […]-2, and bfGnRHR-3 which are bullfrog GnRH receptors, and rat GnRHR, and cell lines expressing each of these receptors were obtained. The GH3 cells expressing […]-3, and rat GnRHR were cultured on 12-well plates. After 24 hours, the cells were cultured again for 24 hours in a media containing no inositol, to which H^3-myoinositol was added. […] Thereafter, they were treated with GnRH having a suitable concentration, cultured at 37° C. for another 30 minutes, and then the media was eliminated. The cells were treated with 10 mM of ice-cold formic acid to terminate the reaction, and the cell extracts were mixed with Dowex anionic exchange resins. These resins were washed with distilled water, IP was extracted with 1 M ammonium formate/0.1 M formic acid, and cpm (count per minute) was determined. The GH3 cell lines were infected with retroviruses comprising genes encoding […]-2, and bfGnRHR-3 which are bullfrog GnRH receptors, and rat GnRHR, and cell lines expressing each of these receptors were obtained.

rat GnRHR [2] = target: T1, rat GnRHR; assay: I125-GnRH-2 competitive ligand-receptor binding, membranes of GH3 cells expressing rat GnRHR; conditions: competition with I125-GnRH-2, 4 °C, 16 hours; read-out: Binding affinity (log IC50 value) (converted)
Protocol: To determine the binding affinity between GnRH and GnRH receptors, GnRH-2 was radiolabeled with I^125. […] After 48 hours, the cells were homogenized to obtain cellular membranes, which were then dissolved in binding buffer (40 mM Tris, pH 7.4, 2 mM MgCl2). 20 μg of membrane proteins were reacted with I^125-GnRH-2 at 4° C. for 16 hours. […] After the reaction was completed, 1^125-GnRH-2 bound to the receptors was filtered using a Brandel harvester, and cpm was measured using a y-counter.

[3] = tested on: male rat (Sprague Dawley); assay: Serum LH and testosterone after injection into male rat (radioimmunoassay); type: in vivo; conditions: 10 μg injected
Protocol: Example 3: GnRH-2 Agonist-induced serum LH and testosterone levels [D-Ala^6]GnRH-2 was dissolved in saline at a concentration of 100 μg/ml, and then 10 μg of [D-Ala^6]GnRH-2 was injected into the cervix of a male rat (Sprague Dawley rat having a weight of approximately 100 g). 1, 2, 4, and 8 hours after the injection, serum was obtained from the rat. The concentration of luteinizing hormone and testosterone present in the serum was measured by radioimmunoassay.

bfGnRHR-1 = assay: Inositol phosphate (IP) production in GH3 cells expressing bfGnRHR-1; type: cell-based, bullfrog
From the text: The GnRH receptor, a membrane protein connected with the G protein, activates the G protein when activated by a ligand, and the activated G protein activates phospholipase C and thereby the synthesis of inositol phosphate (IP), which is the second transmitter in cells, is increased. Based on this principle, the activity of a receptor can be investigated by measuring the amount of IP within cells. GH3 cell lines were obtained from the Cell Line Bank at the Cancer Research Center, Seoul National University College of Medicine, located in Seoul, Republic of Korea. The GH3 cell lines were infected with retroviruses comprising genes encoding […]-2, and bfGnRHR-3 which are bullfrog GnRH receptors, and rat GnRHR, and cell lines expressing each of these receptors were obtained. The GH3 cells expressing […]-3, and rat GnRHR were cultured on 12-well plates. After 24 hours, the cells were cultured again for 24 hours in a media containing no inositol, to which H^3-myoinositol was added. […] Thereafter, they were treated with GnRH having a suitable concentration, cultured at 37° C. for another 30 minutes, and then the media was eliminated. […] These resins were washed with distilled water, IP was extracted with 1 M ammonium formate/0.1 M formic acid, and cpm (count per minute) was determined. […]

Primate GnRH-2 receptor [4] = assay: c-fos-luc luciferase activation in CV-1 cells expressing Primate GnRH-2 receptor; type: cell-based
Protocol: (§1) Complimentary DNA (cDNA) for a Primate GnRH-2 receptor was obtained from a CV-1 cell genome. […] Plasmids having Primate GnRH-2 receptors where transfected into CV-1 cells. To assay the activity of the receptor, c-fos-luc where a luciferase gene is fused with a c-fos promoter was co-transfected as a probe gene. After 48 hours from transfection, the cells were treated with GnRH-2 agonists and then the activity of luciferase was assayed (Seong et al., Endocrinology vol 144 2003, 454-466).
Of the GnRH-2 receptors, [D-Ala^6]GnRH-2 performed excellently, showing effects about 3 times that of a wild-type ligand, GnRH-2. […] When analogs where the 5th, 7th, and 8th amino acids of [D-Ala^6]GnRH-2 are substituted were used, it was observed that their effects were weaker than [D-Ala^6]GnRH-2, and therefore it can be seen that it is important to maintain His, Trp, and Tyr that are found at the 5th, 7th, and 8th positions of GnRH-2 as they are (FIG. 3b).

Primate GnRH-2 receptor [5] = assay: Inhibition of GnRH-2-induced c-fos-luc luciferase activity in cells expressing Primate GnRH-2 receptor; type: cell-based; conditions: treated at the same time as GnRH-2
Protocol: as §1
In the same manner as in 2-3 above, Primate GnRH-2 receptors were co-transfected along with c-fos-luc reporter genes, and after 48 hours, GnRH-2 and GnRH-2 antagonists were treated thereinto at the same time and then the effect of GnRH-2 antagonists was observed.

rat GnRHR [6] = target: T1, rat GnRHR; assay: Inhibition of GnRH-1-induced IP production in GH3 cells expressing rat GnRHR; type: cell-based
Protocol: GH3 cell lines were obtained from the Cell Line Bank at the Cancer Research Center, Seoul National University College of Medicine, located in Seoul, Republic of Korea. The GH3 cell lines were infected with retroviruses comprising genes encoding bfGnRHR-1, bfGnRHR-2, and bfGnRHR-3 which are bullfrog GnRH receptors, and rat GnRHR, and cell lines expressing each of these receptors were obtained. The GH3 cells expressing bfGnRHR-1, bfGnRHR-2, bfGnRHR-3, and rat GnRHR were cultured on 12-well plates. After 24 hours, the cells were cultured again for 24 hours in a media containing no inositol, to which H^3-myoinositol was added. The resultant cells were washed with buffer A (140 mM NaCl, 20 mM HEPES, 4 mM KCl, 8 mM D-Glucose, 1 mM MgCl2, 1 mM CaCl2, 1 mg/ml BSA) and then cultured in buffer A containing 10 mM LiCl at 37°C. for 30 minutes. Thereafter, they were treated with GnRH having a suitable concentration, cultured at 37° C. for another 30 minutes, and then the media was eliminated. The cells were treated with 10 mM of ice-cold formic acid to terminate the reaction, and the cell extracts were mixed with Dowex anionic exchange resins. These resins were washed with distilled water, IP was extracted with 1 M ammonium formate/0.1 M formic acid, and cpm (count per minute) was determined.
However, Trptorelix-1 could reduce the production of IP induced by 1 nM GnRH-2, in a concentration-dependent manner (FIG. 6a to FIG. 6c).

[7] = male rat about 100 g, 1, 2, 4, 8 hours

| EC50 (rat GnRHR [1]) [nM] | sensitivity compared with GnRH-1 (rat GnRHR [1]) | IC50 (rat GnRHR [2]) [nM] | SMILES | fold higher sensitivity than GnRH-1 (bfGnRHR) | fold higher sensitivity than GnRH-2 (bfGnRHR) | effect of unradiolabeled competitor on binding of radiolabeled GnRH-2 to TSU-Pri cells (TSU-Pri cells) | time of testosterone peak point after injection ([3]; male rat) [h] | serum luteinizing hormone (LH) [3, 7] | serum testosterone [3, 7] | concentration activating bfGnRHR-1, fold lower than GnRH-2 (bfGnRHR-1) | effect, times that of wild-type ligand GnRH-2 (Primate GnRH-2 receptor [4]) | binding of the radiolabeled ligand to TSU-Pri cells (TSU-Pri cells) | effect on luciferase activity induced by GnRH-2 (Primate GnRH-2 receptor [5]) | IC50 (rat GnRHR [6]) [nM] | effect reduced, fold, as compared with GnRH-2 (Primate GnRH-2 receptor [4]) [fold] |
| --- | --- | --- | --- | --- | --- | --- | --- | --- | --- | --- | --- | --- | --- | --- | --- |
| 3.24 | a sensitivity lower than 10-fold | 141 | C[C@@H](NC(=O)[C@H](Cc1c[nH]cn1)NC(=O)[C@H](CO)NC(=O)[C@H](Cc1c[nH]c2ccccc12)NC(=O)[C@H](Cc1c[nH]cn1)NC(=O)[C@@H]1CCC(=O)N1)C(=O)N[C@@H](Cc1c[nH]c2ccccc12)C(=O)N[C@@H](Cc1ccc(O)cc1)C(=O)N1CCC[C@H]1C(=O)NCC(N)=O [[D-Ala^6]GnRH-2, p-Glu-His-Trp-Ser-His-D-Ala-Trp-Tyr-Pro-GlyNH2] ([pGlu]HWSH[dA]WYPG-NH2) | 40-20,000 fold | 2.5-10 fold | reduced in a concentration-dependent manner | 4 | an increase of luteinizing hormone (LH) was observed in only one hour | began to rapidly increase from 2 hours after the injection | ~8 fold | about 3 times |  |  |  |  |
| 8.71 | a sensitivity lower than 10-fold | 832 | NC(=O)CNC(=O)[C@@H]1CCCN1C(=O)[C@H](Cc1ccc(O)cc1)NC(=O)[C@H](Cc1c[nH]c2ccccc12)NC(=O)CNC(=O)[C@H](Cc1c[nH]cn1)NC(=O)[C@H](CO)NC(=O)[C@H](Cc1c[nH]c2ccccc12)NC(=O)[C@H](Cc1c[nH]cn1)NC(=O)[C@@H]1CCC(=O)N1 [GnRH-2] ([pGlu]HWSHGWYPG-NH2) |  |  | the binding was reduced |  |  |  |  |  | binding with cells was observed |  |  |  |
|  |  |  | CC(=O)N[C@H](Cc1ccc2ccccc2c1)C(=O)N[C@H](Cc1ccc(Cl)cc1)C(=O)N[C@H](Cc1cccnc1)C(=O)N[C@@H](CO)C(=O)N[C@@H](Cc1ccc(O)cc1)C(=O)N[C@H](CCCNC(N)=O)C(=O)N[C@@H](CC(C)C)C(=O)N[C@@H](CCCNC(=N)N)C(=O)N1CCC[C@H]1C(=O)N[C@H](C)C(N)=O [Cetrorelix, Ac-D-2Nal-(4Cl)-D-Phe-D-3Pal-Ser-Tyr-D-Cit-Leu-Arg-Pro-D-Ala-NH2, reference compound] (Ac-[d2Nal][dPhe(4-Cl)][d3Pal]SY[dCit]LRP[dA]-NH2) |  |  |  |  |  |  |  |  |  | no effect | 0.00933 |  |
| 12 |  | 97.7 | NC(=O)CNC(=O)[C@@H]1CCCN1C(=O)[C@H](Cc1ccc(O)cc1)NC(=O)[C@H](Cc1c[nH]c2ccccc12)NC(=O)[C@@H](Cc1c[nH]c2ccccc12)NC(=O)[C@H](Cc1c[nH]cn1)NC(=O)[C@H](CO)NC(=O)[C@H](Cc1c[nH]c2ccccc12)NC(=O)[C@H](Cc1c[nH]cn1)NC(=O)[C@@H]1CCC(=O)N1 [[D-Trp^6]GnRH-2, reference compound] ([pGlu]HWSH[dW]WYPG-NH2) |  |  |  |  |  |  | similar |  |  |  |  | ~1.2 |
